These are literature values, as cited in publication PMC7584476, “Safety and efficacy of BAY1436032 in IDH1-mutant AML: phase I study results” (Leukemia, 2020).

Like-named read-outs stand apart in the source and are kept apart here.

For one data set, the system named is primary AML samples. To be noted: cited from earlier work.
The test system of another data set is mIDH1 AML. Details: method as in PMID 29860938. To be noted: cited from earlier work.

As for `CC(C)(O)CNc1nc(Nc2ccnc(C(F)(F)F)c2)nc(-c2cccc(C(F)(F)F)n2)n1` [enasidenib], in the data set with primary AML samples, the “Number of colony-forming cells” value was “increased”.
For the compound `N#Cc1ccnc(N2C(=O)CC[C@H]2C(=O)N(c2cncc(F)c2)[C@H](C(=O)NC2CC(F)(F)C2)c2ccccc2Cl)c1` [ivosidenib], in the data set with mIDH1 AML, the Half-life is 72 to 138 h, the “≥grade 3 TEAE IDH DS” value is recorded as 4% and the “≥grade 3 TEAE QT prolongation” value was 8%. Besides, in the data set on mIDH1 AML (similar populations, 95% CI 6.7–10.2), the Median overall survival was 8.8 months. For the same compound, in the data set on primary AML samples (ref MH, unpublished), the “Number of colony-forming cells” value is “increased”.
